Results taken from US10287617B2, “Methods for in vitro—in vivo efficacy determination” (COLORADO STATE UNIVERSITY RESEARCH FOUNDATION, priority 2014, dated 2019).
Values after ≈ are worked out from the molar mass of the structure shown. “Also recorded” adds a separate entry of the source. Where two headings read alike, the source gives them in different places. Marks after values point to notes of the source that are not given here.

Legend:
[1] = Oxidative metabolic lability in human liver microsomes; settings: 5 μM, 1 mg/mL microsomal protein, 20 min
Method: (§3) Microsomal fractions were prepared in the Drug Disposition Domain at DSAR Montpellier (371 rue du Pr. J. Blayac, 34184 Montpellier Cedex 04, France). […] The flavin-containing monooxygenases (FMO)-dependent reactions were run in the presence of bovine serum albumin (BSA, 0.1%) for the duration of 0 and 20 min (with or without microsomal proteins and/or cofactors). […] Following protein precipitation with acetonitrile and their removal by centrifugation, supernatant fluids were analyzed by LC/MS-MS.
(§4) Thermo Finnigan TSQ Quantum Ultra instrument, ESI positive ion ionization mode. Each compound is studied in duplicates. Results are expressed in percentage of lability (or total metabolism). Total metabolism=[1−(UC_Peak Area+Cofactor at T20)/(UC_Peak Area Reference at T0)]×100
(§5) The reactions were prepared as described and were run in the presence of bovine scrum albumin (BSA, 0.1%) for the duration of 0 and 20 min (with or without microsomal proteins and/or cofactors). Enzyme activity was stopped, the protein was precipitated and removed by centrifugation. The supernatant fluids were analyzed by LC/MS-MS. […] A Thermo Finnigan TSQ Quantum Ultra instrument, ESI positive ion ionization mode was used for MS/MS. Each compound was studied in duplicates. Results are expressed in percentage of lability (or total metabolism) using the following formula: Total metabolism=[1−(UC_Peak Area+Cofactor at T20)/(UC_Peak Area Reference at T0)]×100 where UC=Unchanged Compound; “Reference” sample was NADPH for liver microsomal preparation.

M. tuberculosis NHN382 = assay: microbe, parasite or virus in culture; format: cell-based, Mycobacterium tuberculosis; settings: Mycobacterium tuberculosis
M. tuberculosis NHN20 = assay: microbe, parasite or virus in culture; format: cell-based, Mycobacterium tuberculosis; settings: Mycobacterium tuberculosis
M. tuberculosis W210 = assay: microbe, parasite or virus in culture; format: cell-based, Mycobacterium tuberculosis; settings: Mycobacterium tuberculosis
M. tuberculosis H37Rv [2] = assay: Growth inhibition / time dose curves (OD600 and CFU); format: cell-based, Mycobacterium tuberculosis; settings: for reduction in number of viable bacteria: 1×MIC
M. tuberculosis TN587 = assay: microbe, parasite or virus in culture; format: cell-based, Mycobacterium tuberculosis; settings: Mycobacterium tuberculosis
[3] = 100 ng/mL
Method: Plasma was spiked with the compound in order to obtain a final drug concentration of 100 ng/mL (expressed as non-salified compound). The spiked plasma (dedicated to C1h and C4h) was then incubated at 37° C. for 1 h and 4 h. Plasma samples were analyzed by LC-MS/MS following protein precipitation. The limit of quantification for compounds was 10 ng/mL.
10 μL of the sample was injected to Luna Phenomenex C8 (50 mm×2.0 mm, 3 μm). Solvent A: ammonium acetate (0.15 g)/formic acid (2 mL)/HPLC water up to 1000 mL. Solvent B: ammonium acetate (0.15 g)/formic acid (2 mL)/Methanol (200 mL)/Acetonitrile up to 1000 mL, flow rate of 0.3 mL/min, t=0-6 min. gradient of 10-90% of B. Retention time for SB-P17G-C2 was 1.85 min and for SB-P17G-A20 was 3.3 min. MS/MS condition used for detection: Finnigan TSQ Quantum disco instrument, Excalibur version 2.0 acquisition system, ESI positive ion ionization mode. The mean percent of difference between C1h or C4h and C0 concentrations was calculated. M % D (%)=100×[(C1h or C4h)−C0]/C0
The compounds were considered as stable if the mean percent of difference between C4h and C0 concentrations was less than 20%.

[4] = Cytotoxicity assay (resazurin, 72 h); format: cell-based; settings: African green monkey, Vero cells; 72 h
Method: (§1) The cytotoxicity assay was performed as described previously^16. Briefly compounds were serially diluted in 96 well plates.

Vero cells = assay: Cytotoxicity assay (resazurin, 72 h); format: cell-based; settings: at 200 μg/mL
Method: as §1

M. tuberculosis Erdman = format: in vivo; settings: for Δ Lungs (difference between means of Test and Control Groups) / Δ Spleen (difference between means of Test and Control Groups) / Log10CFU Lungs / Log10CFU Spleen: 50 mg/kg b.i.d. (Inh q.d.); for Log10CFU Lungs / Log10CFU Spleen: day 15
[5] = system: M. tuberculosis clinical isolates; assay: microbe, parasite or virus in culture; format: cell-based, Mycobacterium tuberculosis; settings: Mycobacterium tuberculosis, read-out: minimal inhibitory concentrations
[6] = Oxidative metabolic lability in mouse liver microsomes; settings: 5 μM, 1 mg/mL microsomal protein, 20 min
Method: as §3, §4, §5

M. tuberculosis = assay: Benzimidazoles activity tested in animals (animal models of infection, Table A); format: in vivo, mouse; settings: Table A
Method: (§2) Further analysis using the methods described herein was performed on the compounds found in Tables A and B (bold font compounds are shown in FIG. 11) resulting in the data found therein.
Compound efficacy was assessed in two murine models of infection based on the short term model described previously (Lenaerts et al., Antimicrob. Agents Chemother. 2003; 47:783-785). All aerosol infections were performed using a Middlebrook aerosol generation devise (Glas-Col, Terre Haute, Ind.).

M. tuberculosis H37Rv [7] = assay: MIC / dose response by modified microplate Alamar Blue assay (MABA); format: cell-based, Mycobacterium tuberculosis
[8] = system: Mycobacteria tuberculosis; assay: MIC and drug response curve type (Tables A and B); format: cell-based, Mycobacterium tuberculosis; settings: Table A
Method: A drug concentration response curve can be generated by graphing the log10 drug concentrations (μg/mL) against the difference in growth between the drug-treated wells and control wells. See FIG. 3C, and FIG. 5 (entries for SB-P23D8 and SB-P26D9). A NREBA is indicative of bacteriostatic activity above the MIC.
as §2
MIC values were determined for the benzimidazoles using a modified 96-well microplate Alamar Blue (resazurin) assay (MABA) (see Kumar et al., J. Med. Chem. 2011; 54:374-381; Collins and Franzblau, Antimicrob. Agents Chemother. 1997; 41:1004-1009). Dose response curves were generated from the MABA assay for compounds by graphing the log10 drug concentrations against the difference in growth between the drug-treated wells and control wells using GraphPad Prism Version 5.0d for Mac OS X (GraphPad Software, San Diego Calif., USA, www.graphpad.com). For time dose studies, bacterial growth in the presence of compound was monitored by the O.D. 600 nm. […] The values were plotted against time using GraphPad Prism Version 5.0d for Mac OS X (GraphPad Software, San Diego Calif., USA, www.graphpad.com).

## CN(C)c1cc2[nH]c(C3CCCCC3)nc2cc1NC(=O)c1ccc(OC(F)(F)F)cc1F [SB-P17G-A38]
[1]
  Liver Microsome Lability Human: 13%
M. tuberculosis NHN382
  MIC: 0.31 µg/mL (≈ 0.667 µM)
M. tuberculosis NHN20
  MIC: 0.24 ± 0.11 µg/mL (≈ 0.517 µM)
M. tuberculosis W210
  MIC: 0.47 ± 0.22 µg/mL (≈ 1.01 µM)
M. tuberculosis H37Rv [2]; day 2
  reduction in number of viable bacteria: 2.8 Log10 CFU
M. tuberculosis H37Rv [2]; day 6
  reduction in number of viable bacteria: 2.9 Log10 CFU
M. tuberculosis H37Rv [2]; 3-6×MIC
  reduction in bacterial viability: 3.6-4.4 Log10 CFU
M. tuberculosis TN587
  MIC: 0.31 µg/mL (≈ 0.667 µM)
[3]
  Plasma Stability (% hydrolysis) Mouse (4 h): −11.5%
[4]
  IC50 at 72 h: > 200 µg/mL
Vero cells
  cytotoxicity in Vero cells: not cytotoxic; also recorded: non-toxic
M. tuberculosis Erdman; 50 mg/kg b.i.d. via either IP or PO
  reduction of bacterial load in the lungs: 6.1-6.3 Log10 CFU
M. tuberculosis Erdman; IP
  Δ Lungs (difference between means of Test and Control Groups): −6.30*** Log10 CFU
  Δ Spleen (difference between means of Test and Control Groups): −4.96*** Log10 CFU
  Log10CFU Lungs: 0.39 ± 0.63 Log10 CFU
  Log10CFU Spleen: 0 ± 0 Log10 CFU
M. tuberculosis Erdman; PO
  Δ Lungs (difference between means of Test and Control Groups): −6.10*** Log10 CFU
  Δ Spleen (difference between means of Test and Control Groups): −3.89*** Log10 CFU
  Log10CFU Lungs: 0.22 ± 0.34 Log10 CFU
  Log10CFU Spleen: 0 ± 0 Log10 CFU
M. tuberculosis Erdman; delivered IP, 50 mg/kg b.i.d.
  reduction of bacterial load in the lungs: 6.3 Log10 CFU
M. tuberculosis Erdman; delivered PO, 50 mg/kg b.i.d.
  reduction of bacterial load in the lungs: 6.1 Log10 CFU
[5]
  MIC: 0.16 to 0.47 µg/mL (≈ 0.344 to 1.01 µM)
[6]
  Liver Microsome Lability Mouse: 4%
M. tuberculosis
  Efficacy Lung: Yes
  Efficacy Spleen: Yes
M. tuberculosis H37Rv [7]; H37Rv
  MIC: 0.31 ± 0.22 µg/mL (≈ 0.667 µM)
M. tuberculosis H37Rv [7]; Mycobacterium tuberculosis, H37RV
  MIC: 0.31 ± 0.22 µg/mL (≈ 0.667 µM)
[8]; drug response curve type
  Curve: Sigmoid
[8]; in µg/mL
  MIC: .156
